Test results published in article PMC5862516 (PLoS Neglected Tropical Diseases, 2018).
Like-named read-outs stand apart in the source and are kept apart here.

Tests used:
[1] = human, in vivo, 125 mg/kg/day; cited from earlier work
[2] = test system: SOSV minigenome; assay: microbe, parasite or virus in culture; conditions: Sosuga virus; for activity at 0.05 µM / activity at 0.5 µM / activity at 5 µM: Huh-7, 72 h, read-out: Minigenome activity (Relative ZsG fluorescence); for EC50: Huh-7, read-out: Minigenome Screen EC50
[3] = test system: SOSV minigenome; conditions: Huh7 cells; for Minigenome activity (Relative ZsG fluorescence): relative to mock-treated controls
[4] = test system: rSOSV/ZsG; assay: microbe, parasite or virus in culture; assay type: cell-based; conditions: Sosuga virus, Huh-7, read-out: rSOSV/ZsG Screen EC50
[5] = test system: rSOSV; assay: microbe, parasite or virus in culture; assay type: cell-based; conditions: Sosuga virus, Huh-7, 48 h, read-out: EC50 (rSOSV protein immunofluorescence)
[6] = test system: Huh7 cells; conditions: human
[7] = in vitro; conditions: human

Row | SMILES | activity at 0.05 µM [2] [%] | activity at 0.5 µM [2] [%] | activity at 5 µM [2] [%] | further results
1 | CC(=O)OC[C@H]1O[C@@H](n2ncc(=O)[nH]c2=O)[C@H](OC(C)=O)[C@@H]1OC(C)=O [6-azauridine triacetate] | – | – | – | plasma concentrations [1]: ≥ 100 µM
2 | C[C@H](Cn1cnc2c(N)ncnc21)OCP(=O)(O)O [Tenofovir] | 110 | 106 | 107 | –
3 | [N-]=[N+]=N[C@]1(CO)O[C@@H](n2ccc(N)nc2=O)[C@H](O)[C@@H]1O [R-1479] | – | – | – | Minigenome activity (Relative ZsG fluorescence) ([3]; 50 nM): 0.91; Minigenome activity (Relative ZsG fluorescence) ([3]; 500 nM): 0.84; Minigenome activity (Relative ZsG fluorescence) ([3]; 5000 nM): 0.73
4 | O=c1cnn([C@@H]2O[C@H](CO)[C@@H](O)[C@H]2O)c(=S)[nH]1 [6-Aza-2-thiouridine] | 128 | 95 | 110 | –
5 | C[C@@]1(F)[C@H](O)[C@@H](CO)O[C@H]1n1ccc(N)nc1=O [PSI-6130] | – | – | – | Minigenome activity (Relative ZsG fluorescence) ([3]; 50 nM): 0.84; Minigenome activity (Relative ZsG fluorescence) ([3]; 500 nM): 0.85; Minigenome activity (Relative ZsG fluorescence) ([3]; 5000 nM): 0.91
6 | CC(C)C(=O)OC[C@H]1O[C@@H](n2ccc(N)nc2=O)[C@](C)(F)[C@@H]1OC(=O)C(C)C [R-7128] | – | – | – | Minigenome activity (Relative ZsG fluorescence) ([3]; 50 nM): 0.84; Minigenome activity (Relative ZsG fluorescence) ([3]; 500 nM): 0.87; Minigenome activity (Relative ZsG fluorescence) ([3]; 5000 nM): 0.99
7 | COc1c(C)c2c(c(O)c1C/C=C(\C)CCC(=O)O)C(=O)OC2 [Mycophenolic acid] | 89 | 14 | 1 | EC50 [4]: 0.33 ± 0.04 µM; EC50 [5]: 0.48 µM; Minigenome Screen EC50 ([3]; ZsG fluorescence 72 hpt, normalized to mock-treated (DMSO) cells, listed as MPA): sub-micromolar; CC50 [6]: 1.74 ± 0.42 µM; viability [7]: > 80%; CC50 [7]: 1.7 µM
8 | Cc1cn([C@H]2C=C[C@@H](CO)O2)c(=O)[nH]c1=O [Stavudine] | 126 | 104 | 115 | –
9 | Nc1ncn([C@@H]2O[C@H](CO)[C@@H](O)[C@H]2O)c(=O)n1 [5-Azacytidine] | 146 | 111 | 108 | –
10 | O=c1[nH]c(=O)n([C@@H]2O[C@H](CO)[C@@H](O)[C@H]2O)cc1Br [5-Bromouridine] | 97 | 92 | 122 | –
11 | CC[C@H]1OC(=O)[C@H](C)[C@@H](O[C@H]2C[C@@](C)(OC)[C@@H](O)[C@H](C)O2)[C@H](C)[C@@H](O[C@@H]2O[C@H](C)C[C@H](N(C)C)[C@H]2O)[C@](C)(O)C[C@@H](C)CN(C)[C@H](C)[C@@H](O)[C@]1(C)O [Azithromycin] | 102 | 106 | 111 | –
12 | C[C@@]1(O)[C@H](O)[C@@H](CO)O[C@H]1n1ccc(=O)[nH]c1=O [2′-C-Methyluridine] | 132 | 101 | 125 | –
13 | [N-]=[N+]=Nc1cn([C@@H]2O[C@H](CO)[C@@H](O)[C@H]2O)c(=O)[nH]c1=O [5-Azidouridine] | 114 | 104 | 107 | –
14 | Nc1nc(Cl)nc2c1ncn2[C@@H]1O[C@H](CO)[C@@H](O)[C@H]1O [2-Chloroadenosine] | 148 | 143 | 145 | –
15 | CC(C)OC(=O)[C@H](C)N[P@](=O)(OC[C@H]1O[C@@H](n2ccc(=O)[nH]c2=O)[C@](C)(F)[C@@H]1O)Oc1ccccc1 [PSI-7977] | 102 | 102 | 89 | –
16 | O=c1cnn([C@@H]2O[C@H](CO)[C@@H](O)[C@H]2O)c(=O)[nH]1 [6-azauridine] | 120 | 103 | 46 | EC50 [4]: 7.99 ± 1.32 µM; EC50 [5]: 8.9 µM; viability [7]: > 80%; CC50 [7]: > 50 µM; EC50 [2]: 5.17 ± 1.01 µM
17 | Cc1cn([C@H]2C[C@H](N=[N+]=[N-])[C@@H](CO)O2)c(=O)[nH]c1=O [Zidovudine] | 123 | 93 | 113 | –

Row | SMILES | activity at 0.05 µM [2] [%] | activity at 0.5 µM [2] [%] | activity at 5 µM [2] [%] | further results
18 | Nc1ccn([C@@H]2O[C@H](CO)[C@@H](O)[C@H]2F)c(=O)n1 [2′-deoxy-2′-fluorocytidine] | 141 | 91 | 13 | EC50 [4]: 1.48 ± 0.22 µM; EC50 [5]: 4.09 µM; viability [7]: > 80%; CC50 [7]: > 50 µM; EC50 [2]: 1.31 ± 0.15 µM
19 | [N-]=[N+]=Nc1nc2c(N)ncnc2n1[C@@H]1O[C@H](CO)[C@@H](O)[C@H]1O [8-Azidoadenosine] | 120 | 122 | 1 | –
20 | CO[C@@H]1[C@H](O)[C@@H](CO)O[C@H]1n1ccc(=O)[nH]c1=O [2′-O-Methyluridine] | 150 | 104 | 142 | –
21 | Nc1ncnc2c1ncn2[C@@H]1O[C@H](CO)C[C@H]1O [Cordycepin] | 128 | 104 | 101 | –
22 | CC(C)C(=O)OC[C@@]1(N=[N+]=[N-])O[C@@H](n2ccc(N)nc2=O)[C@H](OC(=O)C(C)C)[C@@H]1OC(=O)C(C)C [Balapiravir (R1626), Balapiravir] | 105 | 93 | 90 | –
23 | NC(=O)c1nc(F)cnc1O [T-705] | – | – | – | Minigenome activity (Relative ZsG fluorescence) ([3]; 50 nM): 1.11; Minigenome activity (Relative ZsG fluorescence) ([3]; 500 nM): 1.17; Minigenome activity (Relative ZsG fluorescence) ([3]; 5000 nM): 1.05
24 | O=c1[nH]c(=O)n([C@@H]2O[C@H](CO)[C@@H](O)[C@H]2O)cc1Cl [5-Chlorouridine] | 119 | 125 | 146 | –
25 | C[C@@]1(O)[C@H](O)[C@@H](CO)O[C@H]1n1ccc2c(N)ncnc21 [7-DMA] | – | – | – | Minigenome activity (Relative ZsG fluorescence) ([3]; 50 nM): 1.26; Minigenome activity (Relative ZsG fluorescence) ([3]; 500 nM): 1.02; Minigenome activity (Relative ZsG fluorescence) ([3]; 5000 nM): 1.06
26 | Nc1ncnc2c1nnn2[C@@H]1O[C@H](CO)[C@@H](O)[C@H]1O [8-Azaadenosine] | 146 | 85 | 2 | –
27 | Cc1cn([C@@H]2O[C@H](CO)[C@@H](O)[C@H]2O)c(=O)nc1N [5-Methylcytidine] | 124 | 110 | 125 | –
28 | COc1c(-c2ccc3cc(NS(C)(=O)=O)ccc3c2)cc(-n2ccc(=O)[nH]c2=O)cc1C(C)(C)C [ABT-333] | 127 | 108 | 105 | –
29 | Nc1ncnc2c([C@@H]3N[C@H](CO)[C@@H](O)[C@H]3O)c[nH]c12 [BCX-4430] | 133 | 105 | 118 | –
30 | C#C[C@@]1(O)[C@H](O)[C@@H](CO)O[C@H]1n1ccc2c(N)ncnc21 [NITD008] | – | – | – | Minigenome activity (Relative ZsG fluorescence) ([3]; 50 nM): 1.35; Minigenome activity (Relative ZsG fluorescence) ([3]; 500 nM): 1.07; Minigenome activity (Relative ZsG fluorescence) ([3]; 5000 nM): 1.13
31 | CO[C@@H]1[C@H](O)[C@@H](CO)O[C@H]1n1ccc(N)nc1=O [2′-O-Methylcytidine] | 129 | 104 | 119 | –
32 | NC(=O)c1ncn([C@@H]2O[C@H](CO)[C@@H](O)[C@H]2O)n1 [Ribavirin] | 136 | 113 | 78 | EC50 [4]: 6.1 ± 0.09 µM; CC50 [7]: > 50 µM; EC50 [2]: 5.91 ± 0.85 µM
33 | O=c1[nH]c(=O)n([C@@H]2O[C@H](CO)[C@@H](O)[C@H]2O)cc1F [5-fluorouridine] | 112 | 25 | 10 | Extent of minigenome signal inhibition and cytotoxicity ([3]; dose-response analysis): did not completely inhibit minigenome signal even at the highest concentrations evaluated; viability [7]: > 80%; CC50 [7]: > 50 µM; EC50 [2]: 0.29 ± 0.13 µM
34 | C[C@@]1(O)[C@H](O)[C@@H](CO)O[C@H]1n1ccc(N)nc1=O [2′-C-Methylcytidine] | 124 | 104 | 114 | –
